# Reference: patent publication US6617450B1, “P-glycoproteins and uses thereof” (Becton Dickinson and Company, priority 1999, dated 2003)
# Test system: cynomologous monkey PGP
# Assay: Polarization of vinblastine transport across cynomologous monkey PGP transfected LLC-PK1 cell monolayers in Transwells
# Assay type: cell-based, cynomologous monkey (Macaca fascicularis)
# Details: PGP transfected cells, relative to control cells; vinblastine (0.1 μM) transport in Transwells
# Source text: Cynomologous monkey PGP cDNA (SEQ ID NO:3) is introduced into a clonal population of LLC-PK 1 cells in a vector that confers resistance to hygromycin B. LLC-PK1 cells are obtained from the American Type Culture Collections and are propagated in Medium 199 supplemented to 7% with fetal bovine serum. LLC-PK1 cells are recloned prior to transfection in order to assure homogeneity of the cell population. Briefly, cynomologous monkey PGP cDNA is incorporated into the p222CMV vector. […] The PGP cDNA is under the control of the cytomegalovirus (CMV) immediate early promoter. […] Expression of PGP is measured by the polarization of vinblastine (0.1 μM) transport in Transwells™.
# LLC-PK1 cell based transport studies are conducted in 24 well Transwells™(Corning Costar, Catalog number 3415). […] Transport is measured under sink conditions in both the apical to basolateral (A to B) and basolateral to apical (B to A) directions. […] Quantitation of the amount of compound transported is by liquid scintillation counting (vinblastine) or HPLC with UV or mass spectrometric detection.
# Functional expression of cynomologous monkey PGP is measured by the polarization of transport of vinblastine.
smiles,measurement,value
CC[C@]1(O)C[C@@H]2CN(CCc3c([nH]c4ccccc34)[C@@](C(=O)OC)(c3cc4c(cc3OC)N(C)[C@H]3[C@@](O)(C(=O)OC)[C@H](OC(C)=O)[C@]5(CC)C=CCN6CC[C@]43[C@@H]65)C2)C1 [vinblastine],B to A/A to B ratio,much higher ratio
